This note sets out measurements from patent US20250353853A1, “FLAVIVIRUS INHIBITORS” (IRBM S.P.A., priority 2022, published 2025).

The structures appear in SMILES notation. Like-named read-outs stand apart in the source and are kept apart here. Some results are limits rather than exact numbers.

The term IC50 denotes the concentration that gives 50% inhibition. The EC50 is the midpoint of the concentration-response curve.

Assay [1] has as its target West Nile Virus (WNV) NS2B-NS3 protease (West Nile virus (WNV), UniProt P06935). Put plainly: WNV Protease Inhibition Assay. It is filed as biochemical. From the text:
WNV Protease Inhibition Assay

The subject of assay [2] is ZIKV replicon in Vero cells. Description: ZIKV Replication Inhibition Assay (replicon, NanoLuc). To be noted: Zika virus, Vero, 72 h, read-out: Zika Replicon EC50. On the technique in general: A replicon is a self-replicating genome or part of one, used to study replication in cells.
Setting [3] is: 2 nM protease, 10 μM pERTKR-AMC substrate, read-out: WNV Protease IC50.

Sequence of West Nile Virus (WNV) NS2B-NS3 protease (P06935 1502-1679 limits assumed): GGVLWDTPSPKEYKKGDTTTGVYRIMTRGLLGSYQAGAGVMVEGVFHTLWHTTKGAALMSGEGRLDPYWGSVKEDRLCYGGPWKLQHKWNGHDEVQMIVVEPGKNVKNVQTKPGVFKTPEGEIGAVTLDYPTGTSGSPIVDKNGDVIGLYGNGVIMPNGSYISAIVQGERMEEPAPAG
Sequence of West Nile Virus (WNV) NS2B-NS3 protease (P06935 1371-1501 partner limits assumed): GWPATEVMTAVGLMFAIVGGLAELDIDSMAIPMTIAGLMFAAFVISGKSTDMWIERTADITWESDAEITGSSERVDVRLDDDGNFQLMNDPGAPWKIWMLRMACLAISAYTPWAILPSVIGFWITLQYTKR

Regarding `O=C([N-]c1c[n+](Cc2ccc(Br)cc2)no1)Nc1cccc(C(F)(F)F)c1` [Example 19, (3-(4-bromobenzyl)-1,2,3-oxadiazol-3-ium-5-yl)((3-(trifluoromethyl)phenyl)carbamoyl)amide], the half-maximal inhibitory concentration (IC50) in assay [1] (setting [3]) was under 100 nM. The half-maximal effective concentration (EC50) in assay [2] lay in the range of 100 to 1000 nM.

In assay [1], `O=C([N-]c1c[n+](Cc2ccc(-c3cccnc3)cc2)no1)Nc1cccc(C(F)(F)F)c1` [Example 22, (3-(4-(pyridin-3-yl)benzyl)-1,2,3-oxadiazol-3-ium-5-yl)((3-(trifluoromethyl)phenyl)carbamoyl)amide] gave a half-inhibitory concentration (IC50) of 100 to 1000 nM. Also, the 50% effective concentration (EC50) in assay [2] lay in the range of 100 to 1000 nM.

Consider `Cn1cc(-c2ccc(C[n+]3cc([N-]C(=O)Nc4cccc(C(F)(F)F)c4)on3)cc2)cn1` [Example 23, (3-(4-(1-methyl-1H-pyrazol-4-yl)benzyl)-1,2,3-oxadiazol-3-ium-5-yl)((3-(trifluoromethyl)phenyl)carbamoyl)amide], for which the IC50 in assay [1] is 100 to 1000 nM. For the same molecule, the EC50 in assay [2] was 100 to 1000 nM.

With `O=C([N-]c1c[n+](Cc2ccc(-c3cncnc3)cc2)no1)Nc1cccc(C(F)(F)F)c1` [Example 26, (3-(4-(Pyrimidin-5-yl)benzyl)-1,2,3-oxadiazol-3-ium-5-yl)((3-(trifluoromethyl)phenyl)carbamoyl)amide], the IC50 in assay [1] is 100 to 1000 nM. Moreover, in assay [2], the EC50 fell in the range of 100 to 1000 nM.

For the molecule `O=C([N-]c1c[n+](Cc2ccc(-c3ccncc3)cc2)no1)Nc1cccc(C(F)(F)F)c1` [Example 39, (3-(4-(pyridin-4-yl)benzyl)-1,2,3-oxadiazol-3-ium-5-yl)((3-(trifluoromethyl)phenyl)carbamoyl)amide], the 50% inhibitory concentration (IC50) in assay [1] is 100 to 1000 nM. The half-maximal effective concentration (EC50) in assay [2] fell in the range of 100 to 1000 nM.

As for `O=C([N-]c1c[n+]([C@@H](Cc2ccccc2)CN2CCCC2)no1)Nc1cccc(C(F)(F)F)c1` [Example 40, (S)-(3-(1-phenyl-3-(pyrrolidin-1-yl)propan-2-yl)-1,2,3-oxadiazol-3-ium-5-yl)((3-(trifluoromethyl)phenyl)carbamoyl)amide], the IC50 in assay [1] lay in the range of 1000 to 20000 nM. Further, the EC50 in assay [2] was 1000 to 20000 nM.

With `COc1ncc(-c2ccc(C[n+]3cc([N-]C(=O)Nc4cccc(C(F)(F)F)c4)on3)cc2)cn1` [Example 41, (3-(4-(2-methoxypyrimidin-5-yl)benzyl)-1,2,3-oxadiazol-3-ium-5-yl)((3-(trifluoromethyl)phenyl)carbamoyl)amide], the IC50 in assay [1] (setting [3]) was under 100 nM. Further, the half-maximal effective concentration (EC50) in assay [2] was in the range of 100 to 1000 nM.

`O=C([N-]c1c[n+](Cc2ccc(-c3cnccn3)cc2)no1)Nc1cccc(C(F)(F)F)c1` [Example 42, (3-(4-(pyrazin-2-yl)benzyl)-1,2,3-oxadiazol-3-ium-5-yl)((3-(trifluoromethyl)phenyl)carbamoyl)amide] had an IC50 in assay [1] of 100 to 1000 nM. Further, in assay [2], the concentration giving a half-maximal response (EC50) fell in the range of 100 to 1000 nM.

`O=C([N-]c1c[n+](C(c2ccccc2)C(F)(F)F)no1)Nc1cccc(C(F)(F)F)c1` (stereo not drawn) [Example 44, (3-(2,2,2-trifluoro-1-phenylethyl)-1,2,3-oxadiazol-3-ium-5-yl)((3-(trifluoromethyl)phenyl)carbamoyl)amide]: the 50% inhibitory concentration (IC50) in assay [1] was 1000 to 20000 nM. Further, the EC50 in assay [2] was over 20000 nM.

As for `O=C([N-]c1c[n+]([C@@H](CO)Cc2ccccc2)no1)Nc1cccc(C(F)(F)F)c1` [Example 45], the IC50 in assay [1] (read-out: WNV Protease IC50, 2 nM protease, 10 μM pERTKR-AMC substrate) was in the range of 1000 to 20000 nM.

In assay [1], `O=C([N-]c1c[n+](Cc2cccc(Br)c2)no1)Nc1cccc(C(F)(F)F)c1` [Example 46, (3-(3-bromobenzyl)-1,2,3-oxadiazol-3-ium-5-yl)((3-(trifluoromethyl)phenyl)carbamoyl)amide] returned an IC50 of 100 to 1000 nM. For the same molecule, in assay [2], the concentration for a half-maximal effect (EC50) lay within 1000 to 20000 nM.

As for `O=C([N-]c1c[n+](Cc2ccc(I)cc2)no1)Nc1cccc(C(F)(F)F)c1` [Example 47, (3-(4-iodobenzyl)-1,2,3-oxadiazol-3-ium-5-yl)((3-(trifluoromethyl)phenyl)carbamoyl)amide], in assay [1], the IC50 was 100 to 1000 nM. The EC50 in assay [2] was 100 to 1000 nM.

Turning to `O=C([N-]c1c[n+](Cc2ccc(-c3cnoc3)cc2)no1)Nc1cccc(C(F)(F)F)c1` [Example 48, (3-(4-(isoxazol-4-yl)benzyl)-1,2,3-oxadiazol-3-ium-5-yl)((3-(trifluoromethyl)phenyl)carbamoyl)amide], the IC50 in assay [1] lay within 100 to 1000 nM. The 50% effective concentration (EC50) in assay [2] was 100 to 1000 nM.

In assay [1], `O=C([N-]c1c[n+](Cc2cccc(-c3cncnc3)c2)no1)Nc1cccc(C(F)(F)F)c1` [Example 50, (3-(3-(Pyrimidin-5-yl)benzyl)-1,2,3-oxadiazol-3-ium-5-yl)((3-(trifluoromethyl)phenyl)carbamoyl)amide] showed a half-inhibitory concentration (IC50) of 100 to 1000 nM. Moreover, the EC50 in assay [2] lay in the range of 100 to 1000 nM.

Take `O=C([N-]c1c[n+](Cc2cccc(-c3cccnc3)c2)no1)Nc1cccc(C(F)(F)F)c1` [Example 51, (3-(3-(pyridin-3-yl)benzyl)-1,2,3-oxadiazol-3-ium-5-yl)((3-(trifluoromethyl)phenyl)carbamoyl)amide]: in assay [1], the IC50 was in the range of 100 to 1000 nM. Besides, the EC50 in assay [2] was 100 to 1000 nM.

For the molecule `Cn1cc(-c2cccc(C[n+]3cc([N-]C(=O)Nc4cccc(C(F)(F)F)c4)on3)c2)cn1` [Example 52, (3-(3-(1-methyl-1H-pyrazol-4-yl)benzyl)-1,2,3-oxadiazol-3-ium-5-yl)((3-(trifluoromethyl)phenyl)carbamoyl)amide], the IC50 in assay [1] lay within 100 to 1000 nM. In addition, in assay [2], the concentration for a half-maximal effect (EC50) lay in the range of 100 to 1000 nM.

In assay [1], `COc1ncc(-c2cccc(C[n+]3cc([N-]C(=O)Nc4cccc(C(F)(F)F)c4)on3)c2)cn1` [Example 53, (3-(3-(2-methoxypyrimidin-5-yl)benzyl)-1,2,3-oxadiazol-3-ium-5-yl)((3-(trifluoromethyl)phenyl)carbamoyl)amide] displayed an IC50 of 100 to 1000 nM. The EC50 in assay [2] was 100 to 1000 nM.

In the case of `O=C([N-]c1c[n+](Cc2ccc(I)cc2)no1)Nc1cncc(C(F)(F)F)c1` [Example 55, (3-(4-iodobenzyl)-1,2,3-oxadiazol-3-ium-5-yl)((5-(trifluoromethyl)pyridin-3-yl)carbamoyl)amide], the IC50 in assay [1] is 100 to 1000 nM. Moreover, the EC50 in assay [2] was 100 to 1000 nM.

Turning to `O=C([N-]c1c[n+](Cc2ccc(-c3cncnc3)cc2)no1)Nc1cncc(C(F)(F)F)c1` [Example 57, (3-(4-(pyrimidin-5-yl)benzyl)-1,2,3-oxadiazol-3-ium-5-yl)((5-(trifluoromethyl)pyridin-3-yl)carbamoyl)amide], the IC50 in assay [1] (setting [3]) is under 100 nM. In assay [2], the concentration for a half-maximal effect (EC50) is under 100 nM.

On to `COc1ncc(-c2ccc(C[n+]3cc([N-]C(=O)Nc4cncc(C(F)(F)F)c4)on3)cc2)cn1` [Example 58, (3-(4-(2-methoxypyrimidin-5-yl)benzyl)-1,2,3-oxadiazol-3-ium-5-yl)((5-(trifluoromethyl)pyridin-3-yl)carbamoyl)amide], for which the concentration for half-maximal inhibition (IC50) in assay [1] (setting [3]) is under 100 nM. Also, the EC50 in assay [2] is 100 to 1000 nM.

On to `O=C([N-]c1c[n+]([C@@H]2CCC[C@H]2c2ccccc2)no1)Nc1cccc(C(F)(F)F)c1` [Example 59, (3-((1R,2S)-2-phenylcyclopentyl)-1,2,3-oxadiazol-3-ium-5-yl)((3-(trifluoromethyl)phenyl)carbamoyl)amide], for which the IC50 in assay [1] fell in the range of 1000 to 20000 nM. In assay [2], the concentration giving a half-maximal response (EC50) is 100 to 1000 nM.

Regarding `Cc1ncncc1-c1ccc(C[n+]2cc([N-]C(=O)Nc3cccc(C(F)(F)F)c3)on2)cc1` [Example 60, (3-(4-(4-methylpyrimidin-5-yl)benzyl)-1,2,3-oxadiazol-3-ium-5-yl)((3-(trifluoromethyl)phenyl)carbamoyl)amide], the concentration for half-maximal inhibition (IC50) in assay [1] (setting [3]) is under 100 nM. In addition, the EC50 in assay [2] is under 100 nM.

`O=C([N-]c1c[n+](Cc2ccc(-c3ccnnc3)cc2)no1)Nc1cccc(C(F)(F)F)c1` [Example 61, (3-(4-(pyridazin-4-yl)benzyl)-1,2,3-oxadiazol-3-ium-5-yl)((3-(trifluoromethyl)phenyl)carbamoyl)amide]: the concentration for half-maximal inhibition (IC50) in assay [1] (setting [3]) was under 100 nM. Besides, the EC50 in assay [2] was under 100 nM.

Consider `O=C([N-]c1c[n+](Cc2ccc(B(O)O)cn2)no1)Nc1cccc(C(F)(F)F)c1` [Example 122, (3-((5-boronopyridin-2-yl)methyl)-1,2,3-oxadiazol-3-ium-5-yl)((3-(trifluoromethyl)phenyl)carbamoyl)amide], for which, in assay [2], the EC50 was over 20000 nM.

Take `Cc1ncnc(OCCN(C)C)c1-c1ccc(C[n+]2cc([N-]C(=O)Nc3cccc(C(F)(F)F)c3)on2)nc1` [Example 123, ((3-((5-(4-(2-(metheyliumyl(methyl)ammonio)ethoxy)-6-methylpyrimidin-5-yl)pyridin-2-yl)methyl)-1,2,3-oxadiazol-3-ium-5-yl)((3-(trifluoromethyl)phenyl)carbamoyl)amide) (2,2,2-trifluoroacetate)]: the concentration giving a half-maximal response (EC50) in assay [2] was 100 to 1000 nM.

For `O=C([N-]c1c[n+](Cc2ccc(-c3cnn4c3CNCC4)cn2)no1)Nc1cccc(C(F)(F)F)c1` [Example 124, (3-((5-(4,5,6,7-tetrahydropyrazolo[1,5-a]pyrazin-3-yl)pyridin-2-yl)methyl)-1,2,3-oxadiazol-3-ium-5-yl)((3-(trifluoromethyl)phenyl)carbamoyl)amide], the EC50 in assay [2] was 100 to 1000 nM.

Turning to `Cc1noc(C)c1-c1cnc(C[n+]2cc([N-]C(=O)Nc3cccc(C(F)(F)F)c3)on2)cn1` [Example 169, (3-((5-(3,5-dimethylisoxazol-4-yl)pyrazin-2-yl)methyl)-1,2,3-oxadiazol-3-ium-5-yl)((3-(trifluoromethyl)phenyl)carbamoyl)amide], in assay [2], the EC50 is 100 to 1000 nM.

For the molecule `Cc1noc(C)c1-c1ccc(C[n+]2cc([N-]C(=O)Nc3nccc(C(F)(F)F)n3)on2)nc1` [Example 171, (3-((5-(3,5-dimethylisoxazol-4-yl)pyridin-2-yl)methyl)-1,2,3-oxadiazol-3-ium-5-yl)((4-(trifluoromethyl)pyrimidin-2-yl)carbamoyl)amide], the EC50 in assay [2] lay in the range of 1000 to 20000 nM.

With `Cc1noc(C)c1-c1ncc(C[n+]2cc([N-]C(=O)Nc3cccc(C(F)(F)F)c3)on2)cn1` [Example 174, (3-((2-(3,5-dimethylisoxazol-4-yl)pyrimidin-5-yl)methyl)-1,2,3-oxadiazol-3-ium-5-yl)((3-(trifluoromethyl)phenyl)carbamoyl)amide], the EC50 in assay [2] lay within 100 to 1000 nM.
